PubChem BioAssay (NCI)
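Protocol summary: plate cells (96-well), add compound at 5 concentrations, incubate 48 h, interpolate endpoints linearly. TGI is the concentration that stops growth completely.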

Columns and labels:
Assay in all cases: NCI tumour cell line growth inhibition, 48 h
ACHN renal = tested on: ACHN renal
HL-60(TB) leukemia = tested on: HL-60(TB) leukemia
IGROV1 ovarian = tested on: IGROV1 ovarian
MALME-3M melanoma = tested on: MALME-3M melanoma
NCI-H460 lung = tested on: NCI-H460 lung
SF-539 CNS = tested on: SF-539 CNS
SN12C renal = tested on: SN12C renal
SW-620 colon = tested on: SW-620 colon

| SMILES | TGI (ACHN renal) | TGI (HL-60(TB) leukemia) | TGI (IGROV1 ovarian) | TGI (MALME-3M melanoma) | TGI (NCI-H460 lung) | TGI (SF-539 CNS) | TGI (SN12C renal) | TGI (SW-620 colon) |
| --- | --- | --- | --- | --- | --- | --- | --- | --- |
| O=C(CC(=O)Nc1ccccc1)NNC(c1cc(N=Nc2ccc(Br)cc2)ccc1O)P(O)O (centres undefined) | > 10 µM | 1.12 µM | > 10 µM | > 10 µM | > 10 µM | > 10 µM | > 10 µM | > 10 µM |
| Nc1nc(Nc2ccccc2)sc1C(=O)c1ccco1 | 62.2 µM | 36.1 µM | 60.7 µM | 57.1 µM | 28 µM | 33.3 µM | 39.5 µM | 67.4 µM |
| COc1cc2[nH]c(-c3ccccc3)cc(=O)c2c(OC)c1OC | > 100 µM | > 100 µM | > 100 µM | > 100 µM | > 100 µM | – | > 100 µM | > 100 µM |
| CCN(CC)CCO/N=C1\CC[C@H]2[C@@H]3CCc4cc(OC)ccc4[C@H]3CC[C@]12C | 13.2 µM | 3.12 µM | 10.2 µM | 3.28 µM | 2.15 µM | 3.92 µM | 8.12 µM | 3.47 µM |
| COc1ccc(C2c3cc4c(cc3OC(NCCO)C2C)OCO4)cc1 (centres undefined) | 93.1 µM | 43.3 µM | > 100 µM | 47.7 µM | 63.6 µM | 40.5 µM | 71.7 µM | > 100 µM |
| CC(C)=CCC[C@@H](C)C1=C(O)C(N)=C(C)C(=O)C1=O | 65.4 µM | 10.9 µM | > 40.2 µM | > 100 µM | > 100 µM | 89.5 µM | > 100 µM | > 100 µM |
| C[n+]1c(/C=C/c2ccc(O)c3ncccc23)[se]c2ccccc21 | 8.54 µM | 7.66 µM | > 37.8 µM | 20.3 µM | 9.34 µM | 21.3 µM | 16.1 µM | > 100 µM |
| O=C(OCC1OC(n2nc(Cn3nnc(-c4cccnc4)n3)n(-c3cccc4ccccc34)c2=S)C(OC(=O)c2ccccc2)C1OC(=O)c1ccccc1)c1ccccc1 (centres undefined) | > 100 µM | > 100 µM | > 100 µM | > 100 µM | > 100 µM | > 100 µM | > 100 µM | > 100 µM |
| COc1cccc2c1OCC1Cc3ccccc3OC21 (centres undefined) | – | – | > 100 µM | > 100 µM | – | > 100 µM | 70.1 µM | > 100 µM |
| Cc1cc(O)c(-c2cc(O)c(C)cc2O)cc1O | 13.7 µM | 3.88 µM | 25.9 µM | 25.5 µM | 39.8 µM | 9.35 µM | 13.6 µM | 6 µM |
| CN1N=C(c2ccncc2)OC1c1ccccc1F (centres undefined) | > 100 µM | > 100 µM | > 100 µM | – | > 100 µM | > 100 µM | > 100 µM | > 100 µM |
| Cc1cc(C)nc(NS(=O)(=O)c2ccc(NC(=O)c3cccc4c(NNc5ccc(S(=O)(=O)N=C(N)N)cc5)c5ccccc5nc34)cc2)n1 | > 50 µM | > 50 µM | > 50 µM | > 50 µM | > 50 µM | > 50 µM | > 50 µM | > 50 µM |
| O=C(O)CN(CC(=O)O)C(C(=O)O)c1ccccc1 (centres undefined) | > 100 µM | > 100 µM | > 100 µM | > 100 µM | > 100 µM | > 100 µM | > 100 µM | > 100 µM |
| O=C1C=CC(=O)C(CNc2ccc(C(=O)OCc3ccccc3)cc2)=C1 | 12.9 µM | – | 12.6 µM | 7.22 µM | 38.9 µM | 7.29 µM | 19.3 µM | 19.6 µM |
| CC1(C)OC2COC3([C@@H]4OC(C)(C)O[C@@H]4CO)OC(C)(C)OC3C2O1 (some centres undefined) | > 100 µM | – | > 100 µM | – | > 100 µM | > 100 µM | > 100 µM | > 100 µM |
| CON(C)C(=O)C1CCCO1 (centres undefined) | > 100 µM | > 100 µM | > 100 µM | – | > 100 µM | > 100 µM | > 100 µM | > 100 µM |
| CC(C)[Si](OC/C(=C/COC(C)(C)C)[C@H]1CC=C(C(=O)c2ccccc2N2CN(C)C(=O)N(C)C2)C1)(C(C)C)C(C)C | 28.6 µM | – | 25.6 µM | 21.4 µM | 28.7 µM | 17.8 µM | 24.9 µM | 6.61 µM |
| O=[N+]([O-])c1cccc2c(N=Nc3ccc4ccccc4c3O)c(O)cc(S(=O)(=O)O)c12 | > 100 µM | 91.5 µM | > 100 µM | 80.6 µM | – | – | > 100 µM | > 100 µM |
| COc1cc([N+](=O)[O-])c(OC)c2c(Nc3ccc(S(=O)(=O)O)c4cc(S(=O)(=O)O)cc(S(=O)(=O)O)c34)cc(C)nc12 | – | > 100 µM | > 100 µM | > 100 µM | – | > 100 µM | > 100 µM | > 100 µM |
| C=CC(=O)N1C/C(=C\c2ccc(Cl)cc2)C(=O)/C(=C/c2ccc(Cl)cc2)C1 | 1.02 µM | – | 0.678 µM | 3.84 µM | 1.18 µM | 0.419 µM | 0.704 µM | 0.887 µM |
| Cc1cccc(/C(Br)=C2/OC(=O)c3ccccc32)c1 | > 100 µM | – | > 100 µM | > 100 µM | > 100 µM | > 100 µM | > 100 µM | > 100 µM |
| COc1ccc([C@H]2C=[N+]([O-])O[C@H](OC3CCCC3)[C@@H]2OC(C)=O)cc1OC | 88.4 µM | 39.1 µM | 52.4 µM | 51.2 µM | > 100 µM | 38 µM | – | 53 µM |
| CN1CCN(C2=C(Cl)C3(OCCS3)C(F)(F)C2(F)F)CC1 (centres undefined) | > 100 µM | > 100 µM | > 100 µM | > 100 µM | – | > 100 µM | > 100 µM | > 100 µM |
| O=C1OC(c2ccccc2)N(C(=O)c2ccccc2)C1Cc1ccc(OCc2ccccc2)cc1 (centres undefined) | > 100 µM | > 100 µM | > 100 µM | – | > 100 µM | > 100 µM | > 100 µM | > 100 µM |
| COC(=O)C1(O)C(c2ccccc2)=NC2(C)CCCC21 (centres undefined) | – | – | > 100 µM | > 100 µM | > 100 µM | – | > 100 µM | > 100 µM |
| COC(=O)N1N=C(c2ccccc2)C1c1ccccc1 (centres undefined) | – | > 100 µM | – | > 100 µM | > 100 µM | > 100 µM | > 100 µM | > 100 µM |
